Key:
[1] = molecular target: T1, Histone-lysine N-methyltransferase EHMT2 (Homo sapiens, UniProt Q96KQ7); assay: Inhibition G9a (unknown origin)
T1 sequence (Q96KQ7 whole entry): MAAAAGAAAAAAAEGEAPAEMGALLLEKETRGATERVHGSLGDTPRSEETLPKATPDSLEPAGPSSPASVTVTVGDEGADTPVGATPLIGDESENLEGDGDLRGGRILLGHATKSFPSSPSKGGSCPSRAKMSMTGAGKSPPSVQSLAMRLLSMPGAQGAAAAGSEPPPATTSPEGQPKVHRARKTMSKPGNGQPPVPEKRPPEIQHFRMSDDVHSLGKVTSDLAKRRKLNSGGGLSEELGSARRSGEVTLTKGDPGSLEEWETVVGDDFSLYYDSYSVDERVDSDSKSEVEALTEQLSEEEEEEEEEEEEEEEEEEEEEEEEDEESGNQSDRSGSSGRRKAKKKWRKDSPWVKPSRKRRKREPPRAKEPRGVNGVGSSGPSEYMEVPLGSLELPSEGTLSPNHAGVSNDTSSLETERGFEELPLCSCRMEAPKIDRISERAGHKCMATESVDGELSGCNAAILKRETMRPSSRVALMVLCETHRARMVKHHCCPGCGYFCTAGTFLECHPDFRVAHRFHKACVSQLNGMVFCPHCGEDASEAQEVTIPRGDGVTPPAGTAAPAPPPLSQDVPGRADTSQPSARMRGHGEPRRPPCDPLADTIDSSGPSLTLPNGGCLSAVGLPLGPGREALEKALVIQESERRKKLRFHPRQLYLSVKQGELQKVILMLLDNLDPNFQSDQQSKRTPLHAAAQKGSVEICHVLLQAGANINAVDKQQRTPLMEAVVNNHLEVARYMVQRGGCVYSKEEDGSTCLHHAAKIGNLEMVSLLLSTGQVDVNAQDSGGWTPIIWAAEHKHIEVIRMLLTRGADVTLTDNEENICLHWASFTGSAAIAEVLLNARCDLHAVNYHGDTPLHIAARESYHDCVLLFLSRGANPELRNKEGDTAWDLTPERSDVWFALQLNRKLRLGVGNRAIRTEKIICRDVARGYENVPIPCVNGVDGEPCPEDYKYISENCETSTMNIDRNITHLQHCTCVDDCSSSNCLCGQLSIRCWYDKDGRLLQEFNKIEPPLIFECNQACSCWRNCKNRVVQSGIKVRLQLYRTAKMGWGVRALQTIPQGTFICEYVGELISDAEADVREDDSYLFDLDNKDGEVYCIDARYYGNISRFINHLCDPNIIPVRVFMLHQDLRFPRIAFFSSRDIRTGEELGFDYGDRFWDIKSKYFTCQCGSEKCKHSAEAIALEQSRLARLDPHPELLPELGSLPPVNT

[2] = molecular target: T1, Histone-lysine N-methyltransferase EHMT2; assay: Inhibition of recombinant human G9a using biotinylated-Histone H3 peptide (1 to 21 residues) after 30 mins in presence of SAM by AlphaLISA assay
[3] = Metabolic stability in human liver microsomes assessed as parent compound turn over percentage at 1 mM preincubated for 5 mins followed by NADPH addition and measured for 60 mins by UHPLC analysis; type: ADME, Microsome; details: read-out: Drug metabolism
[4] = Apparent permeability of the compound after 24 hrs by PAMPA; type: ADME
[5] = Apparent permeability of the compound after 24 hrs by BBB-PAMPA; type: ADME

SMILES | IC50 [2] | other results
COc1cc2c(NC3CCN(CCCCCN)CC3)nc(NCCCN(C)C)nc2cc1OCCCCCN | – | IC50 [1]: 160 nM
COc1cc2c(cc1OCCCN1CCCC1)NC(c1ccccc1)CN=C2NC1CCN(C(C)C)CC1 (stereo not drawn) | 2090 nM | –
COc1cc2c(NC3CCN(C(C)C)CC3)nc(C3CCCCC3)nc2cc1OCCCN1CCCC1 | – | metabolised at 1 h [3]: 2.93%; Papp [4]: 0.49 ×10⁻⁷ cm/s; Papp [5]: 0.19 ×10⁻⁷ cm/s
COc1cc2c(cc1OCCCN1CCCC1)N=C(C1CCCCC1)CC(NC1CCN(C(C)C)CC1)=N2 | 2980 nM | –

Second part, led by results:

IC50 [2] | SMILES | other results
1090 nM | COc1cc2c(cc1OCCCN1CCCC1)N=C(c1ccccc1)CN=C2NC1CCN(C(C)C)CC1 | –
955 nM | COc1cc2c(cc1OCCCN1CCCC1)NC(C1CCCCC1)CN=C2NC1CCN(C(C)C)CC1 (stereo not drawn) | –
